From patent US7214794B2, “Ceramide analogs, process for their preparation and their use as antitumor agents” (Bracco S.p.A., priority 1999, dated 2007)

Tested on: human leukemia cell line CCRF/CEM
Experiment: Cytotoxicity test (growth inhibition of CCRF/CEM cells)
Type: cell-based
Conditions: 72 hours exposure, cell count, non-linear regression, read-out: IC50 (concentration capable of inhibiting 50% of cell growth)
Experimental: The cytotoxicity of the compounds synthesized 1–28 was assessed using a human leukemia cell line called CCRF/CEM. The CCRF/CEM cells were cultured in a culture medium containing RPMI 1640 (90%), bovine fetal sera (10%) and interleukin-2 (100 U/ml). The cytotoxicity assay was performed on […] CCRF/CEM cells seeded in 35 mm wells in 2 ml of culture medium. The cells were treated with the compounds under consideration for 72 hours and at the end of the period of exposure their number was counted and compared with that of control cells treated with C2-ceramide in order to establish the percentage of growth inhibition. The concentration capable of inhibiting 50% of cell growth was calculated by non-linear regression of the experimental data as described in M. Macchia, N. Jannitti, G. B. Gervasi, R. Danesi, J Med Chem, (1996) 39 (7): 1352–1356.

CCCCCCCCCCCCC/C=C/[C@@H](O)[C@H](CO)NC(C)=O [controls, C2-ceramide] was tested. Which IC50 did it give?
The IC50 was 31.6 µM.
